{
  "source": "paper doi:10.1101/2021.09.15.460527v1",
  "about": "(bioRxiv, 2021)",
  "tested_on": "rats with heroin self-administration experience",
  "assay": "Cue-induced heroin seeking",
  "type": "in vivo, rat",
  "conditions": "0.3 mg/kg sc",
  "note": "Starred links: 1 amine or outer side, 2 acyl side, 3 side chain; linkers in the order of their positions; H or OH if unused. Groups on a side chain read outwards from the residue. No end group written: not given here. *: point of attachment. γGlu = O=C(O)[C@H](CCC(=O)[*:2])N[*:1]; Palmitoyl = CCCCCCCCCCCCCCCC(=O)*",
  "data": [
    {"substance": "liraglutide (HAEGTFTSDVSSYLEGQAAK([γGlu-Palmitoyl])EFIAWLVRGRG; chains of the INN, looked up)", "values": [
      {"measurement": "Minimum effective pretreatment time", "result": "between four and six"}
    ]}
  ]
}
